# In PubChem BioAssay (NCI):
#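 Cultured in 96-well plates, cells were exposed to test compound for 48 hours across five concentrations. TGI: total growth inhibition.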
# Key:
# Experiment in all cases: NCI-60 cell line screen, 48 h
# [1] = test system: MDA-MB-231 breast
# [2] = test system: NCI-H226 lung
# [3] = test system: OVCAR-3 ovarian
# [4] = test system: TK-10 renal
# [5] = test system: SF-539 CNS
# [6] = test system: OVCAR-5 ovarian
# [7] = test system: SK-MEL-5 melanoma
# [8] = test system: HS 578T breast
# [9] = test system: OVCAR-4 ovarian
# [10] = test system: MOLT-4 leukemia
# [11] = test system: HCT-116 colon
# [12] = test system: RPMI-8226 leukemia
# [13] = test system: SR leukemia
# [14] = test system: SF-268 CNS
# [15] = test system: UO-31 renal
# [16] = test system: UACC-62 melanoma
# [17] = test system: HOP-92 NSCLC
# [18] = test system: SK-MEL-2 melanoma
# [19] = test system: NCI-H23 lung
# [20] = test system: HL-60(TB) leukemia
# [21] = test system: KM12 colon
# [22] = test system: RXF 393 renal
# [23] = test system: M14 melanoma
# [24] = test system: A498 renal
# [25] = test system: SW-620 colon
# [26] = test system: SK-MEL-28 melanoma
# [27] = test system: ACHN renal
# [28] = test system: EKVX NSCLC
# [29] = test system: K-562 leukemia
# [30] = test system: DU-145 prostate
# [31] = test system: SNB-19 CNS
# [32] = test system: NCI-H522 lung
# [33] = test system: BT-549 breast
# [34] = test system: SF-295 CNS
# [35] = test system: A549 NSCLC
# [36] = test system: MCF7 breast
# [37] = test system: IGROV1 ovarian
# [38] = test system: LOX IMVI melanoma
# [39] = test system: 786-0 renal
# [40] = test system: PC-3 prostate
# [41] = test system: HCC-2998 colon
# [42] = test system: NCI/ADR-RES ovarian
# [43] = test system: MDA-N
# [44] = test system: COLO 205 colon
# [45] = test system: NCI-H460 lung
# [46] = test system: OVCAR-8 ovarian
# [47] = test system: MDA-MB-435
# [48] = test system: HOP-62 NSCLC
# [49] = test system: SN12C renal
# [50] = test system: HT29 colon
# [51] = test system: HCT-15 colon
# [52] = test system: MALME-3M melanoma
# [53] = test system: UACC-257 melanoma
# [54] = test system: U251 CNS
# [55] = test system: CAKI-1 renal
# [56] = test system: CCRF-CEM leukemia
# [57] = test system: SNB-75 CNS
# [58] = test system: SK-OV-3 ovarian
smiles,measurement,setting,value
COc1ccc([C@H]2[C@H](C)C3=Nc4ccccc4CN32)cc1,TGI,[1],> 100 µM
same,TGI,[2],> 100 µM
same,TGI,[3],> 100 µM
same,TGI,[4],> 100 µM
same,TGI,[5],> 100 µM
same,TGI,[6],> 100 µM
same,TGI,[7],> 100 µM
same,TGI,[8],> 100 µM
same,TGI,[9],> 100 µM
same,TGI,[10],> 100 µM
same,TGI,[11],> 100 µM
same,TGI,[12],> 100 µM
same,TGI,[13],> 100 µM
same,TGI,[14],> 100 µM
same,TGI,[15],> 100 µM
same,TGI,[16],> 100 µM
same,TGI,[17],> 100 µM
same,TGI,[18],> 100 µM
same,TGI,[19],> 100 µM
same,TGI,[20],> 100 µM
same,TGI,[21],> 100 µM
same,TGI,[22],> 100 µM
same,TGI,[23],> 100 µM
same,TGI,[24],> 100 µM
same,TGI,[25],> 100 µM
same,TGI,[26],> 100 µM
same,TGI,[27],> 100 µM
same,TGI,[28],> 100 µM
same,TGI,[29],> 100 µM
same,TGI,[30],> 100 µM
same,TGI,[31],> 100 µM
same,TGI,[32],> 100 µM
same,TGI,[33],> 100 µM
same,TGI,[34],> 100 µM
same,TGI,[35],> 100 µM
same,TGI,[36],> 100 µM
same,TGI,[37],> 100 µM
same,TGI,[38],> 100 µM
same,TGI,[39],> 100 µM
same,TGI,[40],> 100 µM
same,TGI,[41],> 100 µM
same,TGI,[42],> 100 µM
same,TGI,[43],47.2 µM
same,TGI,[44],> 100 µM
same,TGI,[45],> 100 µM
same,TGI,[46],> 100 µM
same,TGI,[47],> 100 µM
same,TGI,[48],> 100 µM
same,TGI,[49],> 100 µM
same,TGI,[50],> 100 µM
same,TGI,[51],> 100 µM
same,TGI,[52],> 100 µM
same,TGI,[53],> 100 µM
same,TGI,[54],> 100 µM
same,TGI,[55],> 100 µM
CCOP(=O)(OCC)/C(C#N)=C/c1coc2cc(C)cc(C)c2c1=O,TGI,[1],> 100 µM
same,TGI,[2],> 100 µM
same,TGI,[3],> 100 µM
same,TGI,[6],> 100 µM
same,TGI,[7],> 100 µM
same,TGI,[8],> 100 µM
same,TGI,[9],> 100 µM
same,TGI,[10],> 100 µM
same,TGI,[11],> 100 µM
same,TGI,[12],> 100 µM
same,TGI,[13],> 100 µM
same,TGI,[14],> 100 µM
same,TGI,[15],> 100 µM
same,TGI,[16],> 100 µM
same,TGI,[17],> 100 µM
same,TGI,[18],> 100 µM
same,TGI,[19],> 100 µM
same,TGI,[20],> 100 µM
same,TGI,[21],> 100 µM
same,TGI,[23],> 100 µM
same,TGI,[56],> 100 µM
same,TGI,[24],> 100 µM
same,TGI,[25],> 100 µM
same,TGI,[26],> 100 µM
same,TGI,[27],> 100 µM
same,TGI,[28],> 100 µM
same,TGI,[29],> 100 µM
same,TGI,[30],> 100 µM
same,TGI,[31],> 100 µM
same,TGI,[32],> 100 µM
same,TGI,[33],> 100 µM
same,TGI,[34],> 100 µM
same,TGI,[35],> 100 µM
same,TGI,[36],> 100 µM
same,TGI,[37],> 100 µM
same,TGI,[38],> 100 µM
same,TGI,[39],> 100 µM
same,TGI,[40],> 100 µM
same,TGI,[41],> 100 µM
same,TGI,[42],> 100 µM
same,TGI,[43],> 100 µM
same,TGI,[44],> 100 µM
same,TGI,[45],> 100 µM
same,TGI,[46],> 100 µM
same,TGI,[47],> 100 µM
same,TGI,[48],> 100 µM
same,TGI,[49],> 100 µM
same,TGI,[50],> 100 µM
same,TGI,[57],> 100 µM
same,TGI,[52],> 100 µM
same,TGI,[53],> 100 µM
same,TGI,[58],> 100 µM
same,TGI,[54],> 100 µM
same,TGI,[55],> 100 µM
CC(=O)Oc1ccc(/C=C/C(=O)NCC(NC(=O)/C=C/c2ccc(OC(C)=O)c(OC(C)=O)c2)C(=O)O)cc1OC(C)=O (centres undefined),TGI,[1],> 100 µM
same,TGI,[2],> 100 µM
same,TGI,[3],> 100 µM
same,TGI,[4],> 100 µM
same,TGI,[5],> 100 µM
same,TGI,[6],> 100 µM
same,TGI,[7],> 100 µM
same,TGI,[8],> 100 µM
same,TGI,[9],> 100 µM
same,TGI,[10],50.1 µM
same,TGI,[11],> 100 µM
same,TGI,[12],> 100 µM
same,TGI,[13],> 100 µM
same,TGI,[14],> 100 µM
same,TGI,[15],> 100 µM
same,TGI,[16],> 100 µM
same,TGI,[17],> 100 µM
same,TGI,[18],> 100 µM
same,TGI,[19],> 100 µM
same,TGI,[21],> 100 µM
same,TGI,[22],> 100 µM
same,TGI,[23],> 100 µM
same,TGI,[56],> 100 µM
same,TGI,[24],> 100 µM
same,TGI,[25],> 100 µM
same,TGI,[26],> 100 µM
same,TGI,[27],> 100 µM
same,TGI,[28],> 100 µM
same,TGI,[29],> 100 µM
same,TGI,[30],> 100 µM
same,TGI,[31],> 100 µM
same,TGI,[32],> 100 µM
same,TGI,[33],> 100 µM
same,TGI,[34],> 100 µM
same,TGI,[35],> 100 µM
same,TGI,[36],> 100 µM
same,TGI,[37],> 100 µM
same,TGI,[38],> 100 µM
same,TGI,[39],> 100 µM
same,TGI,[40],> 100 µM
same,TGI,[41],> 100 µM
same,TGI,[42],> 100 µM
same,TGI,[43],> 100 µM
same,TGI,[44],> 100 µM
same,TGI,[45],> 100 µM
same,TGI,[46],> 100 µM
same,TGI,[47],> 100 µM
same,TGI,[48],> 100 µM
same,TGI,[49],> 100 µM
same,TGI,[50],> 100 µM
same,TGI,[51],> 100 µM
same,TGI,[52],> 100 µM
same,TGI,[53],> 100 µM
same,TGI,[54],> 100 µM
same,TGI,[55],> 100 µM
